Reference: ChEMBL document CHEMBL4118122, “Identification and biological evaluation of thiazole-based inverse agonists of RORγt” (Bioorg Med Chem Lett, 2018)

How the values were obtained:
Rattus norvegicus = organism: Rattus norvegicus; assay: Displacement of [3H]batrachotoxinin from rat brain voltage gated sodium ion channel site 2 at 10 uM after 60 mins by scintillation counting analysis relative to control
[1] = target: T1, 5-hydroxytryptamine receptor 2B (Homo sapiens, UniProt P41595); assay: Displacement of [125I]+/-DOI from human recombinant 5-HT2B receptor after 60 mins by scintillation counting analysis
T1 sequence (P41595 whole entry): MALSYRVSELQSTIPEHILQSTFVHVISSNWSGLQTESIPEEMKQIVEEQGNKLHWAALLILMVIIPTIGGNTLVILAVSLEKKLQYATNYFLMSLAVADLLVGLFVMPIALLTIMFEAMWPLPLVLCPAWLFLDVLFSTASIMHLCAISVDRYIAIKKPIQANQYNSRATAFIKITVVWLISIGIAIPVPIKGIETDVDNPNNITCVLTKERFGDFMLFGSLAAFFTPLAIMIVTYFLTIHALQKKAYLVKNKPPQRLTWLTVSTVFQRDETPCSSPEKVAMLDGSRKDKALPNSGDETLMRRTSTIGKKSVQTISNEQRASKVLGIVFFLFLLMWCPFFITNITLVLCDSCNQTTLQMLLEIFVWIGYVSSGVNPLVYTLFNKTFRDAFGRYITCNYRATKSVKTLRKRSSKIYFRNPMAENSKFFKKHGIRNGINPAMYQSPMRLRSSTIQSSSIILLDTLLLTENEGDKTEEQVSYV

[2] = target: Muscarinic acetylcholine receptor M3 (Homo sapiens, UniProt P20309); assay: Displacement of [3H]4-DAMP from human recombinant M3 receptor after 60 mins by scintillation counting analysis
[3] = target: 5-hydroxytryptamine receptor 7 (Homo sapiens, UniProt P34969); assay: Displacement of [3H]LSD from human recombinant 5-HT7 receptor after 120 mins by scintillation counting analysis
[4] = Displacement of [3H]batrachotoxinin from rat brain voltage gated sodium ion channel site 2 after 60 mins by scintillation counting analysis
[5] = target: Muscarinic acetylcholine receptor M1 (Homo sapiens, UniProt P11229); assay: Displacement of […] from human recombinant M1 receptor after 60 mins by scintillation counting analysis
Sequence of Muscarinic acetylcholine receptor M1 (P11229 whole entry): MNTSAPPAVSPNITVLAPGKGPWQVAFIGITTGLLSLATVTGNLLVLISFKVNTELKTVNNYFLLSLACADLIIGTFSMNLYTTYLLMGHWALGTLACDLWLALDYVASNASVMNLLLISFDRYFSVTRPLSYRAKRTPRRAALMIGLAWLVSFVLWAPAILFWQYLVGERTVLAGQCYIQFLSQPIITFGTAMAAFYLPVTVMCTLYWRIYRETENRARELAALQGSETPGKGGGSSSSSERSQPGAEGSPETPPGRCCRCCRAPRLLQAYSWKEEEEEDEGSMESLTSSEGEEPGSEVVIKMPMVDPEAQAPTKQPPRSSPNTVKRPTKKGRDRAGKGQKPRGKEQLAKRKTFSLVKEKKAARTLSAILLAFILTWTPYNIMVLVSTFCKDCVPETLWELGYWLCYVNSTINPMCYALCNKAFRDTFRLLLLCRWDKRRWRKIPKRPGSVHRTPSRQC

[6] = target: Neurotensin receptor type 1 (Homo sapiens, UniProt P30989); assay: Displacement of [125I]Tyr3-neurotensin from human recombinant NTS1 receptor after 120 mins by scintillation counting analysis
Somatostatin receptor = assay: Displacement of [125I]Tyr11-somatostatin-14 from mouse SST receptor after 60 mins by scintillation counting analysis; type: protein assay
[7] = target: Activin receptor type-1B (Homo sapiens) (UniProt P36896); assay: Inhibition of recombinant GST-tagged human ACVR1B catalytic domain (150 to 505 residues) expressed in baculovirus expression system at 10 uM in presence of ATP relative to control
[8] = tested on: Casein kinase II subunit alpha' (CSNK2A2); assay: Inhibition of CK2alpha2 (unknown origin) at 10 uM in presence of ATP relative to control; conditions: Homo sapiens
[9] = target: Adrenergic receptor alpha-1 (Rattus norvegicus) (UniProt P15823+P23944+P43140); assay: Displacement of [3H]-prazosin from rat alpha1 adrenoceptor at 10 uM after 60 mins by scintillation counting analysis relative to control; type: protein assay
[10] = target: T1, 5-hydroxytryptamine receptor 2B; assay: Displacement of [125I]+/-DOI from human recombinant 5-HT2B receptor at 10 uM after 60 mins by scintillation counting analysis relative to control
[11] = target: Type-1 angiotensin II receptor (Homo sapiens, UniProt P30556); assay: Displacement of [125I][Sar1,Ile8]-AT-II from human recombinant AT1 receptor after 120 mins by scintillation counting analysis
[12] = target: Sodium-dependent serotonin transporter (Homo sapiens, UniProt P31645); assay: Displacement of [3H]-imipramine from recombinant human 5-HT transporter at 1 uM after 60 mins by scintillation counting relative to control
Sequence of Sodium-dependent serotonin transporter (P31645 whole entry, looked up): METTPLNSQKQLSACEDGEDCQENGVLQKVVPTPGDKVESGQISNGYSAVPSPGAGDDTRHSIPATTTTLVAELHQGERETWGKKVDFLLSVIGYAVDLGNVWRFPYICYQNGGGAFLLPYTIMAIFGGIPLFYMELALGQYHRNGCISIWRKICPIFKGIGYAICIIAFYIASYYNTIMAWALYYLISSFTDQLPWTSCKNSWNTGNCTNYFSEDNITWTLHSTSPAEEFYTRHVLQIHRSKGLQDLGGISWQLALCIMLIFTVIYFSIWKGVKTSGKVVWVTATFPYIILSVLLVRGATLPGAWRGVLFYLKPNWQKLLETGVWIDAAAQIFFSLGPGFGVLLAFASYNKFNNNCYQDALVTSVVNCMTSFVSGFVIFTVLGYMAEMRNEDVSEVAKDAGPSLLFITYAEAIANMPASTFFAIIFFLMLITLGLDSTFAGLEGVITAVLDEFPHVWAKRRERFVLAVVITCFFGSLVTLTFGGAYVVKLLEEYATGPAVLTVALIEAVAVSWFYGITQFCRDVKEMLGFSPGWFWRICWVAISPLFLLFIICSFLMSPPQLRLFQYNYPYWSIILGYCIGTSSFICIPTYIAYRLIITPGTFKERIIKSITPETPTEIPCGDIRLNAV

[13] = target: Cholecystokinin receptor type A (Homo sapiens) (UniProt P32238); assay: Displacement of [125I]CCK-8s from human recombinant CCK1 receptor at 1 uM after 60 mins by scintillation counting analysis relative to control
Sequence of Cholecystokinin receptor type A (Homo sapiens) (P32238 whole entry, the tested form may be a part): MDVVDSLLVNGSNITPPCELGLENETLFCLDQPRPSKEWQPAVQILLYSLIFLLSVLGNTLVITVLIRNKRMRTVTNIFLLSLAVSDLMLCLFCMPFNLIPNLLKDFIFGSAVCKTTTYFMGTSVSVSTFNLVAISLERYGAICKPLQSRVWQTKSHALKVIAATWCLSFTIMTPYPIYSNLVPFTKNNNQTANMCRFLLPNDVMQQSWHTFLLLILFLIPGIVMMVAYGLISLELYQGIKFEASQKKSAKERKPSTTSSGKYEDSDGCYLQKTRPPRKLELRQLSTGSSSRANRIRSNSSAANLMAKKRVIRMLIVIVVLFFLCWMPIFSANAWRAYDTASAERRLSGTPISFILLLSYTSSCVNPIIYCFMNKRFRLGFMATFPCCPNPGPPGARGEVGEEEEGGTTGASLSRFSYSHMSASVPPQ

Substance-K receptor = Substance-K receptor (Homo sapiens, UniProt P21452); assay: Displacement of [125I]NKA from human recombinant NK2 receptor after 60 mins by scintillation counting analysis
[14] = target: 5-hydroxytryptamine receptor 2A (Homo sapiens, UniProt P28223); assay: Displacement of [3H]ketanserin human recombinant 5-HT2A receptor at 10 uM after 60 mins by scintillation counting analysis relative to control
[15] = target: Rho-associated protein kinase 1 (Homo sapiens) (UniProt Q13464); assay: Inhibition of recombinant N-terminal GST-tagged human ROCK1 catalytic domain (1 to 535 residues) expressed in baculovirus expression system at 10 uM in presence of ATP relative to control
Sequence of Rho-associated protein kinase 1 (Homo sapiens) (Q13464 2-1354 limits assumed): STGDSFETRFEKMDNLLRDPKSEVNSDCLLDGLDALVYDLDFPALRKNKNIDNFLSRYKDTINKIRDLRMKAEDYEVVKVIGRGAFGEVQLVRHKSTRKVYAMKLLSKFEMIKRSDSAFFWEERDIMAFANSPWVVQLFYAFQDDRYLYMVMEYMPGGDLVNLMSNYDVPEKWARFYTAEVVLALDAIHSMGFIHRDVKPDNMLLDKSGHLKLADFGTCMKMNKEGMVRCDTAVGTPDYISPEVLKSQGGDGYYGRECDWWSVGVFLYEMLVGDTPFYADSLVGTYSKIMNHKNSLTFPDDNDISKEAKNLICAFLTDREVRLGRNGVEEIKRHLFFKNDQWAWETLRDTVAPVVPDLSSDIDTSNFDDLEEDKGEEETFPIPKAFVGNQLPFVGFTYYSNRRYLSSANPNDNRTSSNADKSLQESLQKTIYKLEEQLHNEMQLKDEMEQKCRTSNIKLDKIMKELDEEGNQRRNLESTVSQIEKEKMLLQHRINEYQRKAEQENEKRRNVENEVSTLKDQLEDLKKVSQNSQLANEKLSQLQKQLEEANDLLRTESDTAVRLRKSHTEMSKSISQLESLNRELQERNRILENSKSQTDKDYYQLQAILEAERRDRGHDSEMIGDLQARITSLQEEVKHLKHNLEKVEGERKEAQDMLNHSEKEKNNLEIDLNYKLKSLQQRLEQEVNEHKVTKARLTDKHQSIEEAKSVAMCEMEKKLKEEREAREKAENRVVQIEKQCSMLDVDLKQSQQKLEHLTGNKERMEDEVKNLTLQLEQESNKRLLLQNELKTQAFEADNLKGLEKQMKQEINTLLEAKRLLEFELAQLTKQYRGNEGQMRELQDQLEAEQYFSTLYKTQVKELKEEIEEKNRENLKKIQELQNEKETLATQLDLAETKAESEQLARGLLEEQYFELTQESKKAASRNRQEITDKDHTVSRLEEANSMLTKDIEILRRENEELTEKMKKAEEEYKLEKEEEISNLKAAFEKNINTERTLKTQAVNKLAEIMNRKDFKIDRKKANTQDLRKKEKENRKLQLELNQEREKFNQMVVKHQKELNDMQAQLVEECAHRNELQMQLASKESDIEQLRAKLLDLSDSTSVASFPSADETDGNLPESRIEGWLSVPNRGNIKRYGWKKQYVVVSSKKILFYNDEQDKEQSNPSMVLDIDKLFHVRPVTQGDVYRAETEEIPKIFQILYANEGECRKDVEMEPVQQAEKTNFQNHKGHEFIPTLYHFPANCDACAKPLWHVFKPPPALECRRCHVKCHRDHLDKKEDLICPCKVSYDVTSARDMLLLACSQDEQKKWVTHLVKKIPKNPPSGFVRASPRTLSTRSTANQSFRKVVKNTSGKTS

Histamine H2 receptor = Histamine H2 receptor (Homo sapiens, UniProt P25021); assay: Displacement of [125I]APT from human recombinant histamine H2 receptor at 1 uM after 120 mins by scintillation counting analysis relative to control
Sequence of Histamine H2 receptor (P25021 whole entry, the tested form may be a part): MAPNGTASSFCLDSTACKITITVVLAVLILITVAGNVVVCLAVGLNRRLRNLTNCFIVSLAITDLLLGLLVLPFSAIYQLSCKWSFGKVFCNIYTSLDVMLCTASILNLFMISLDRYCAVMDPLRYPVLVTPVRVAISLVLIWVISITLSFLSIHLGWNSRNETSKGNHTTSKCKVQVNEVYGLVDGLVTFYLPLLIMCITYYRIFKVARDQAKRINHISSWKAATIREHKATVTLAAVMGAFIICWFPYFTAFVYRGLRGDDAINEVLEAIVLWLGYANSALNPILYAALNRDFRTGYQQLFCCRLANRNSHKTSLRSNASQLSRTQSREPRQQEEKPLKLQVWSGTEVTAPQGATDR

PXR (NR1I2) = target: T2, PXR (NR1I2) (Homo sapiens, UniProt O75469); assay: […] at PXR LBD (unknown origin) expressed in HEK293 cells […] at 1 uM after 16 hrs by luciferase reporter gene assay relative to rifampicin; type: ADME, cell-based; conditions: HEK293 cells expressing PXR LBD, read-out: Efficacy
T2 sequence (O75469 whole entry): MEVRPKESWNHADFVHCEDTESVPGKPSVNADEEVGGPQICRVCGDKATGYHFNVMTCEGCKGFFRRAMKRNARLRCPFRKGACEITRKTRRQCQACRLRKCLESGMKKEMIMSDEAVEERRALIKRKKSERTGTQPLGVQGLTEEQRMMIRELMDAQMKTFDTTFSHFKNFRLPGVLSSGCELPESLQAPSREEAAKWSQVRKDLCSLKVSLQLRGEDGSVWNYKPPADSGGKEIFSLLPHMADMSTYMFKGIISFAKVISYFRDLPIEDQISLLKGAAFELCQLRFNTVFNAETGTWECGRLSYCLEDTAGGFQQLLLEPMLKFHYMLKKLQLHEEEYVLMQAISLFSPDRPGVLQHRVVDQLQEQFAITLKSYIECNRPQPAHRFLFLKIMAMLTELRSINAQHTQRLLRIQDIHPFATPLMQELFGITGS

[16] = target: Adrenergic receptor alpha-2 (Rattus norvegicus) (UniProt P22086+P19328+P22909); assay: Displacement of [3H]-RX 821002 from rat alpha2 adrenoceptor at 1 uM after 60 mins by scintillation counting analysis relative to control; type: protein assay
[17] = target: Muscarinic acetylcholine receptor M2 (Homo sapiens, UniProt P08172); assay: Displacement of [3H]AF-DX 384 from human recombinant M2 receptor after 60 mins by scintillation counting analysis
[18] = target: Cyclin-dependent kinase 1/cyclin B1 (Homo sapiens) (UniProt P06493+P14635); assay: Inhibition of recombinant full length His-tagged human CDK1/Cyclin B expressed in baculovirus expression system at 10 uM in presence of ATP relative to control
[19] = target: Cholecystokinin receptor type A (Homo sapiens) (UniProt P32238); assay: Displacement of [125I]CCK-8s from human recombinant CCK1 receptor at 10 uM after 60 mins by scintillation counting analysis relative to control
[20] = target: Ephrin type-A receptor 2 (Homo sapiens) (UniProt P29317); assay: Inhibition of recombinant GST-tagged human EPHA2 (560 to 976 residues) cytoplasmic domain expressed in baculovirus expression system at 10 uM in presence of ATP relative to control
[21] = target: Protein kinase C alpha type (Homo sapiens) (UniProt P17252); assay: Inhibition of recombinant full length human PKCalpha expressed in baculovirus expression system at 10 uM in presence of ATP relative to control
[22] = target: Delta-type opioid receptor (Homo sapiens, UniProt P41143); assay: Displacement of [3H]DADLE from human recombinant delta opioid receptor at 1 uM after 60 mins by scintillation counting analysis relative to control
Sequence of Delta-type opioid receptor (P41143 whole entry): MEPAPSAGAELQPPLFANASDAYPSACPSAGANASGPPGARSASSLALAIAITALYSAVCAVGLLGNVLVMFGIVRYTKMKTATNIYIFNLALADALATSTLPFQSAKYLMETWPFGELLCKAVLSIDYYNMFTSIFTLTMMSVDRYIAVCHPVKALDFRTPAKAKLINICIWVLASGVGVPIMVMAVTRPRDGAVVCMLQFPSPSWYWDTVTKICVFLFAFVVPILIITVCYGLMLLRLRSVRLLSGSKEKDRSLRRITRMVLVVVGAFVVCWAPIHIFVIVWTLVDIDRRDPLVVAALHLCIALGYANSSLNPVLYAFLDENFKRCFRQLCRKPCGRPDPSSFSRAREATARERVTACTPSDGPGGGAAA

[23] = target: Cholecystokinin receptor type A (Homo sapiens, UniProt P32238); assay: Displacement of [125I]CCK-8s from human recombinant CCK1 receptor after 60 mins by scintillation counting analysis
Sequence of Cholecystokinin receptor type A (P32238 whole entry): as the sequence (P32238 whole entry, the tested form may be a part) above

CC(C)(C)NS(=O)(=O)c1ccc(-c2sc(C(=O)N[C@H]3C[C@H](C(=O)O)C3)nc2CC2CCCCC2)c2ccccc12
inhibition (Rattus norvegicus): 11%
IC50 [1]: 3.2 nM
IC50 [2]: 0.73 nM
IC50 [3]: 0.39 nM
IC50 [4]: 6420 nM
IC50 [5]: 18 nM
IC50 [6]: 0.25 nM
IC50 (Somatostatin receptor): 0.31 nM
inhibition [7]: -2%
inhibition [8]: 2%
inhibition [9]: < 10%
inhibition [10]: < 10%
IC50 [11]: 0.47 nM
inhibition [12]: < 10%
inhibition [13]: < 10%
IC50 (Substance-K receptor): 1.2 nM
inhibition [14]: < 10%
inhibition [15]: -10%
inhibition (Histamine H2 receptor): < 10%
Emax at 16 h, 1 µM (PXR (NR1I2)): 141%
inhibition [16]: < 10%
IC50 [17]: 48 nM
inhibition [18]: -3%
inhibition [19]: 54%
inhibition [20]: -7%
inhibition [21]: -1%
inhibition [22]: 12%
IC50 [23]: 0.12 nM
